Experimental data published in patent US20170027896A1, “METHODS AND COMPOSITIONS FOR THE TREATMENT OF VASCULAR MALFORMATION” (IFOM - FONDAZIONE ISTITUTO FIRC DI ONCOLOGIA MOLECOLARE, priority 2014, published 2017).
Entries after “also recorded” stand apart in the source; their conditions may differ.

B1: Dkk1: murine recombinant Dkk1, competitor of Wnt co-receptor Lrp5/6 (protein)
chain: TLNSVLINSNAIKNLPPPLGGAGGQPGSAVSVAPGVLYEGGNKYQTLDNYQPYPCAEDEECGSDEYCSSPSRGAAGVGGVQICLACRKRRKRCMRHAMCCPGNYCKNGICMPSDHSHFPRGEIEESIIENLGNDHNAAAGDGYPRRTTLTSKIYHTKGQEGSVCLRSSDCAAGLCCARHFWSKICKPVLKEGQVCTKHKRKGSHGLEIFQRCYCGEGLACRIQKDHHQASNSSRLHTCQRH
B2: b-catenin (other, mouse, UniProt Q02248 2-781, looked up)
chain: ATQADLMELDMAMEPDRKAAVSHWQQQSYLDSGIHSGATTTAPSLSGKGNPEEEDVDTSQVLYEWEQGFSQSFTQEQVADIDGQYAMTRAQRVRAAMFPETLDEGMQIPSTQFDAAHPTNVQRLAEPSQMLKHAVVNLINYQDDAELATRAIPELTKLLNDEDQVVVNKAAVMVHQLSKKEASRHAIMRSPQMVSAIVRTMQNTNDVETARCTAGTLHNLSHHREGLLAIFKSGGIPALVKMLGSPVDSVLFYAITTLHNLLLHQEGAKMAVRLAGGLQKMVALLNKTNVKFLAITTDCLQILAYGNQESKLIILASGGPQALVNIMRTYTYEKLLWTTSRVLKVLSVCSSNKPAIVEAGGMQALGLHLTDPSQRLVQNCLWTLRNLSDAATKQEGMEGLLGTLVQLLGSDDINVVTCAAGILSNLTCNNYKNKMMVCQVGGIEALVRTVLRAGDREDITEPAICALRHLTSRHQEAEMAQNAVRLHYGLPVVVKLLHPPSHWPLIKATVGLIRNLALCPANHAPLREQGAIPRLVQLLVRAHQDTQRRTSMGGTQQQFVEGVRMEEIVEGCTGALHILARDVHNRIVIRGLNTIPLFVQLLYSPIENIQRVAAGVLCELAQDKEAAEAIEAEGATAPLTELLHSRNEGVATYAAAVLFRMSEDKPQDYKKRLSVELTSSLFRTEPMAWNETADLGLDIGAQGEALGYRQDDPSYRSFHSGGYGQDALGMDPMMEHEMGGHHPGADYPVDGLPDLGHAQDLMDGLPPGDSNQLAWFDTDL
notes: Endogenous protein in total cell extracts, co-immunoprecipitated with VE-cadherin antibodies; also called beta-catenin; β-catenin
B3: VE-cadherin (other, mouse, UniProt P55284 46-784, looked up)
chain: DWIWNQMHIDEEKNESLPHYVGKIKSNVNRQNAKYVLQGEFAGKIFGVDANTGNVLAYERLDREKVSEYFLTALIVDKNTNKNLEQPSSFTVKVHDINDNWPVFSHQVFNASVPEMSAIGTSVIRVTAVDADDPTVAGHATVLYQIVKGNEYFSIDNSGLIFTKIKNLDREKQAEYKIVVETQDALGLRGESGTATVMIRLEDINDNFPVFTQSTYTFSVPEDIRVGKPLGFLTVVDPDEPQNRMTKYSIMQGEYRDTFTIETDPKRNEGIIKPTKSLDYEVIQQYTFYIEATDPTIRYEYLSSTSGKNKAMVTINVLDVDEPPVFQRHFYHFKLPENQKKPLIGTVVAKDPDKAQRSIGYSIRKTSDRGQFFRITKQGNIYNEKELDRETYAWYNLTVEANELDSRGNPVGKESIVQVYIEVLDENDNPPEFAQPYEPKVCENAAQGKLVVQISATDKDVVPVNPKFKFALKNEDSNFTLINNHDNTANITVKYGQFNREHAKFHYLPVLISDNGVPSLTGTSTLTVGVCKCNEQGEFTFCEEMAAQAGVSIQALVAIFLCILTITVITLLIILRRRIRKQAHAHSKSALEIHEQLVTYDEEGGGEMDTTSYDVSVLNSVRGGSTKPLRSTMDARPAVYTQVQKPPRLAPGLHGGPREMATMIDVKKEEADNDGGGPPYDTLHIYGYEGAESIAESLSSLSTNSSDSDIDYDFLNDWGPRFKMLAELYGSDPQEELII
notes: Endogenous protein immunoprecipitated from endothelial cell extracts with VE-cadherin antibodies (IP: VE); also called Cdh5

What was measured:
[1] = test system: CCM3-knockout (KO) endothelial cells; assay: Axin2 and S100a4 transcription in un-stimulated CCM3-knockout endothelial cells treated with Wnt pathway inhibitors; assay type: cell-based, mouse; conditions: 48 h, IWP2, IWP12 0.5, 2, 5 DM, Dkk1 0.5 uM
Protocol: (§1) Drugs were added to confluent cells for 48 h before the indicated assays. Final concentrations for IWP2 and IWP12, both from Sigma-Aldrich, were: 0.5, 2, 5 DM. Drugs were dissolved in DMSO, control treatment (Vehicle) was 0.1% DMSO final concentration, as for drug treatment. Murine recombinant Dkk1 (R&D) was 0.5 DM on cells.
(§2) RNA extraction was performed with RNeasy kits (74106; […]). The RNA (1 μg) was reverse transcribed with random hexamers (High Capacity cDNA Archive kits; Applied Biosystems). The cDNA was amplified with TaqMan gene expression assays (Applied Biosystems) using a 7900 HT thermocycler (ABI/Prism). For each sample, the expression levels were determined with the comparative threshold cycle (Ct) method, and normalized to the housekeeping genes encoding 18S and glyceraldehyde-3-phosphate dehydrogenase (GAPDH). For amplification, the following probes (Applied Biosystems) that have been validated to recognize the mouse transcripts in rtPCR were used: Axin2, Nkd1, Lef1, ccnd1, cMyc-Klf4, Ly6a, S100a4, Id1, Cdh2, Acta2, CD44. The probes to identify the CCM3 mRNA transcript were custom designed, as: forward, […] (SEQ ID No. 12); reverse, GCTCTGGCCGCTCAATCA (SEQ ID No. 13); reporter sequence, […] (SEQ ID No. 14).

[2] = test system: CCM3-knockout endothelial cell line; assay: rtPCR of b-catenin target gene and progenitor/EndMT markers in CCM3-knockout endothelial cell line; assay type: cell-based, mouse; conditions: 48 h; 135 mM sulindac sulfide, 125 mM sulindac sulfone, 200 mM silibinin, 250 mM salinomycin
Protocol: In some experiments, endothelial cell lines from the lungs of CCM3-flox/flox mice (8-10 weeks old) were immortalized in culture through retroviral expression of polyoma middle T gene^60. […] These cells were then maintained in culture for up to 25 passages without detectable changes in the effects of this CCM3 ablation.
Drugs were added to confluent cells for 48 h before the indicated assays. The final concentrations used were: […] (all from Sigma-Aldrich). As all of these were dissolved in DMSO, control treatment (vehicle) was 0.1% DMSO final concentration, as for drug treatment.
as §2

[3] = test system: wild-type endothelial cells; assay: Wnt3a stimulation of stem-cell/EndMT marker expression in wild-type endothelial cells; assay type: cell-based, mouse; conditions: acute stimulation (48 h); 5 ng/ml
Protocol: as §1, §2

[4] = test system: Wnt3a-induced stimulation of Axin2; assay: Wnt3a-induced stimulation of Axin2 in wild-type and CCM3-knockout endothelial cell lines; assay type: cell-based, mouse; conditions: Dkk1 0.5 uM
Protocol: as §1, §2

VE-cadherin = biological target: B3; assay: co-immunoprecipitation with VE-cadherin antibodies and Western blot, bands quantified with ImageJ, mean of three experiments; vehicle-KO versus vehicle-WT
From the text: Active b-catenin and VE-cadherin were lost from cell-cell contacts (adherens junctions) in these CCM3-knockout endothelial cells (top main panels, XY axis; small lower panels, Z projection along X axis). The active b-catenin (KO vehicle, arrowheads) is concentrated into the nucleus (see corresponding arrowheads in DAPI stainings) (right panels). Treatment with sulindac sulfide restored the distribution of active b-catenin to the adherens junctions (right panels, sulindac sulfide, arrowheads, and small lower right panels, sulindac sulfide, small arrowheads, for distribution along Z axis) and co-localization of active b-catenin and VE-cadherin is observed (arrowheads). […] Podocalyxin is re-localized from the apical surface (left panels, WT, arrows) to be ectopically distributed on the basal side with CCM3 knockout (right panel, vehicle, arrowheads), as it has been reported for CCM1 knockout⁴⁶. Nuclei are outlined by white lines (DAPI). Sulindac sulfide re-establishes the correct apical distribution of podocalyxin (right panel, sulindac sulfide, arrows). Scale bar, […]. c. Representative Western blotting (top) and quantification (bottom) of the effects of sulindac sulfide on the co-immunoprecipitation complex of b-catenin and VE-cadherin. […] The quantification of the bands from the Western blotting was assessed as the means of three independent experiments, using ImageJ. d.

b-catenin = biological target: B2; assay: co-immunoprecipitation with VE-cadherin antibodies and Western blot, murine endothelial cell line extracts

## Cc1ccc2nc(NC(=O)CSc3nc4c(c(=O)n3-c3ccccc3)SCC4)sc2c1 [IWP2]
[1]
  b-catenin-driven activation of Axin2 and S100a4 transcription: not inhibited; also recorded: did not inhibit

## Cc1ccc2nc(NC(=O)CSc3nc4c(c(=O)n3C)SC(C)C4)sc2c1 (centres unmarked) [IWP12]
[1]
  b-catenin-driven activation of Axin2 and S100a4 transcription: not inhibited; also recorded: did not inhibit

## CC[C@@H](C(=O)[C@@H](C)[C@@H](O)[C@H](C)[C@@H]1O[C@@H]([C@@H](CC)C(=O)O)CC[C@@H]1C)[C@H]1O[C@]2(C=C[C@@H](O)[C@]3(CC[C@@](C)([C@H]4CC[C@](O)(CC)[C@H](C)O4)O3)O2)[C@H](C)C[C@@H]1C [salinomycin]
[2]
  inhibition of transcription of Axin2, Klf4 and S100a4 (rtPCR): significantly reduced only Axin2 and S100a4

## Wnt3a
[3]
  induction of expression of stem-cell/EndMT markers: cannot induce; also recorded: did not induce

## B1
[4]
  Wnt3a-induced stimulation of Axin2: effectively inhibited
[1]
  b-catenin-driven activation of Axin2 and S100a4 transcription: not inhibited; also recorded: did not inhibit

## B2
VE-cadherin
  reduction of the b-catenin/VE-cadherin co-immunoprecipitation ratio in CCM3-knockout versus wild-type cells: 35%

## B3
b-catenin
  binding result: binds
